The source of these data is patent US20260193249A1, “PREPARATION OF PYRAZOLOPYRIDINE AND TRIAZOLOPYRIDINE DERIVATIVES AS NOVEL DIACYLGLYCERIDE O-ACYLTRANSFERASE 2 INHIBITORS” (Merck Sharp & Dohme LLC, priority 2022, published 2026).

The target in this assay is T1, human DGAT2 (Homo sapiens, UniProt Q96PD7).
T1 construct: made in house; host or cells: Sf-9 insect cells (baculovirus), membrane fraction
T1 sequence (Q96PD7 1-388): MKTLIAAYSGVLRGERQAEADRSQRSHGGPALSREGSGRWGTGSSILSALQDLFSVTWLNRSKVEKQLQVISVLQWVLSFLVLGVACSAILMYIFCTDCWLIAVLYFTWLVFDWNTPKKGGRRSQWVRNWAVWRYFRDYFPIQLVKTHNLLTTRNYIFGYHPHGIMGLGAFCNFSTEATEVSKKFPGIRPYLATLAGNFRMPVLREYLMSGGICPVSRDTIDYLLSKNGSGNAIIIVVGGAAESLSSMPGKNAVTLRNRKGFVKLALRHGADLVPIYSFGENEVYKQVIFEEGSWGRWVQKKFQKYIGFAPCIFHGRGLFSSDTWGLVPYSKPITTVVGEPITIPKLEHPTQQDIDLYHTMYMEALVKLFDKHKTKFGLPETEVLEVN
The experiment in a line: DGAT2 Enzymatic Activity Assay. Type of assay: biochemical. Particulars: membrane prep of Sf-9 insect cells expressing hDGAT2; 13C18-triolein product by LC/MS/MS; 25 μM diolein, 5 μM 13C oleoyl-CoA. A digest of the protocol:
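Membrane fractions from Sf-9 cells expressing untagged human DGAT2 (baculovirus, 48 h) used as enzyme; reaction run at rt. Product ^13C18-triolein quantified by LC/MS/MS (positive HESI, C4 column) against ^13C21-triolein internal standard after liquid-liquid extraction; % inhibition versus high/low controls and IC50 derived.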

In general, IC50 refers to the concentration needed to halve the response being measured. A lower IC50 goes with inhibition by little substance.

In the case of `Cc1cc(Oc2ncc(F)cc2OCC(F)(F)F)cc2cc(C(=O)NC3(C)CCS(=O)(=O)CC3)nn12` [Example 59, 5-((5-Fluoro-3-(2,2,2-trifluoroethoxy)pyridin-2-yl)oxy)-7-methyl-N-(4-methyl-1,1-dioxidotetrahydro-2H-thiopyran-4-yl)pyrazolo[1,5-a]pyridine-2-carboxamide], the midpoint of inhibition, the IC50, lay at 6 nM.

As for `Cc1cn2nc(C(=O)NC3(C)CCS(=O)(=O)CC3)cc2cc1Oc1ncc(F)cc1OCC(F)(F)F` [Example 60, 5-((5-Fluoro-3-(2,2,2-trifluoroethoxy)pyridin-2-yl)oxy)-6-methyl-N-(4-methyl-1,1-dioxidotetrahydro-2H-thiopyran-4-yl)pyrazolo[1,5-a]pyridine-2-carboxamide], the IC50 was determined as 3.5 nM. In turn, `CC1(NC(=O)c2nn3ccc(Oc4ncc(Cl)cc4OCC(F)F)nc3c2F)CCS(=O)(=O)CC1` [Example 61, 5-((5-Chloro-3-(2,2-difluoroethoxy)pyridin-2-yl)oxy)-3-fluoro-N-(4-methyl-1,1-dioxidotetrahydro-2H-thiopyran-4-yl)pyrazolo[1,5-a]pyrimidine-2-carboxamide] yielded an IC50 of 133 nM. On to `CC1(NC(=O)c2cc3nc(Oc4ncc(Cl)cc4OCC(F)F)ccn3n2)CCS(=O)(=O)CC1` [Example 62, 5-((5-Chloro-3-(2,2-difluoroethoxy)pyridin-2-yl)oxy)-N-(4-methyl-1,1-dioxidotetrahydro-2H-thiopyran-4-yl)pyrazolo[1,5-a]pyrimidine-2-carboxamide], for which the IC50 is 86 nM. For `CC1(NC(=O)c2nc3cc(Oc4ncc(Cl)cc4OCC(F)(F)F)ccn3n2)CCS(=O)(=O)CC1` [Example 63, 7-((5-Chloro-3-(2,2,2-trifluoroethoxy)pyridin-2-yl)oxy)-N-(4-methyl-1,1-dioxidotetrahydro-2H-thiopyran-4-yl)-[1,2,4]triazolo[1,5-a]pyridine-2-carboxamide] the value was 349 nM.

Compound `O=C(NC1(C(F)F)CCS(=O)(=O)CC1)c1nc2cc(Oc3ncc(Cl)cc3OCC(F)(F)F)ccn2n1` [Example 64, 7-((5-Chloro-3-(2,2,2-trifluoroethoxy)pyridin-2-yl)oxy)-N-(4-(difluoromethyl)-1,1-dioxidotetrahydro-2H-thiopyran-4-yl)-[1,2,4]triazolo[1,5-a]pyridine-2-carboxamide] displayed an IC50 of 165 nM.

The compound `O=C(NC1(CC(F)(F)F)CCS(=O)(=O)CC1)c1nc2cc(Oc3ncc(Cl)cc3OCC(F)(F)F)ccn2n1` [Example 65, 7-((5-Chloro-3-(2,2,2-trifluoroethoxy)pyridin-2-yl)oxy)-N-(1,1-dioxido-4-(2,2,2-trifluoroethyl)tetrahydro-2H-thiopyran-4-yl)-[1,2,4]triazolo[1,5-a]pyridine-2-carboxamide] had an IC50 of 160 nM. The compound `CC1(NC(=O)c2nc3cc(Oc4ncc(Cl)cc4OCC(F)(F)F)ccn3n2)CS(=O)(=O)C1` [Example 66, 7-((5-Chloro-3-(2,2,2-trifluoroethoxy)pyridin-2-yl)oxy)-N-(3-methyl-1,1-dioxidothietan-3-yl)-[1,2,4]triazolo[1,5-a]pyridine-2-carboxamide] showed an IC50 of 67 nM. For `CC1(NC(=O)c2cc3nc(OCc4ncc(Cl)cc4OCC(F)F)ccn3n2)CCS(=O)(=O)CC1` [Example 67, 5-((5-Chloro-3-(2,2-difluoroethoxy)pyridin-2-yl)methoxy)-N-(4-methyl-1,1-dioxidotetrahydro-2H-thiopyran-4-yl)pyrazolo[1,5-a]pyrimidine-2-carboxamide] the value was 3.3 nM; for `COc1cccc(COc2ccn3nc(C(=O)NC4(C)CCS(=O)(=O)CC4)cc3n2)n1` [Example 68, 5-((6-Methoxypyridin-2-yl)methoxy)-N-(4-methyl-1,1-dioxidotetrahydro-2H-thiopyran-4-yl)pyrazolo[1,5-a]pyrimidine-2-carboxamide], above 9990 nM. `CCOc1cccc(COc2ccn3nc(C(=O)NC4(C)CCS(=O)(=O)CC4)cc3n2)n1` [Example 69, 5-((6-Ethoxypyridin-2-yl)methoxy)-N-(4-methyl-1,1-dioxidotetrahydro-2H-thiopyran-4-yl)pyrazolo[1,5-a]pyrimidine-2-carboxamide] displayed an IC50 of 264 nM. Next, `COc1ccc(Cl)c(COc2ccn3nc(C(=O)NC4(C)CCS(=O)(=O)CC4)cc3n2)n1` [Example 70, 5-((3-Chloro-6-methoxypyridin-2-yl)methoxy)-N-(4-methyl-1,1-dioxidotetrahydro-2H-thiopyran-4-yl)pyrazolo[1,5-a]pyrimidine-2-carboxamide]: 82 nM.
